From ChEMBL document CHEMBL1212888, “NMR spectroscopy and computational analysis of interaction between Serratia marcescens chitinase B and a dipeptide derived from natural-product cyclopentapeptide chitinase inhibitor argifin” (Bioorg Med Chem, 2010)

Target: T1, Chitinase B (Serratia marcescens, UniProt P11797)
T1 sequence (P11797 whole entry): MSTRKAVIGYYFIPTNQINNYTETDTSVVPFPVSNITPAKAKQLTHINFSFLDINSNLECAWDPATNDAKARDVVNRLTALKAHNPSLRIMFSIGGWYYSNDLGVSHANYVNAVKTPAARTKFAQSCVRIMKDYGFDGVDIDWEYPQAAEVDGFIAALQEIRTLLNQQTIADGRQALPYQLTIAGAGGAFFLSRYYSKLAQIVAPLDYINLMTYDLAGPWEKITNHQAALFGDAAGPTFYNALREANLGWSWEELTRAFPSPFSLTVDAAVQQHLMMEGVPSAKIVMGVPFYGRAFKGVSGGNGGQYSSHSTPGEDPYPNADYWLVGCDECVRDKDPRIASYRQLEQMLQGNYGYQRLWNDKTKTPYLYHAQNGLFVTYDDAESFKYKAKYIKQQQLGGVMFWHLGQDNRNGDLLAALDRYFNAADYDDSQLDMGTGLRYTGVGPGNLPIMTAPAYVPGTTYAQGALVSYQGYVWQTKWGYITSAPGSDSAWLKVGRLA
Assay: Inhibition of Serratia marcescens chitinase B

SMILES: CNC(=O)NC(=N)NCCC[C@@H]1NC(=O)[C@@H](C)NC(=O)C[C@@H](C(=O)O)NC(=O)C[C@@H](C(=O)O)NC(=O)[C@H](Cc2ccccc2)N(C)C1=O [ARGIFIN]
- Kd: 33 µM
